Patent US11999716B2, “WDR5 inhibitors and modulators” (priority 2018, dated 2024)
Like-named read-outs stand apart in the source and are kept apart here.

Tested on: MV4:11 human cancer cell lines
Assay: Cellular viability / anti-proliferative activity, CellTiter-Glo, 5 day protocol
Type: cell-based
Settings: Homo sapiens, MV4-11, 120 h, read-out: GI50 on cellular proliferation of MV4:11 human cancer cell lines
In short: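 Compounds were tested over 22 two-fold dilutions starting at 30 μM in 0.3% DMSO, with 200 cells per well (7200 cells/mL). Viability was measured by CellTiter-Glo luminescence at day 5.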

[1] = MV4:11 cells, 5 day incubation, CellTiter-Glo, mean of minimum two replicates

SMILES | GI50 [1] | GI50
CCn1cc(-c2cc(CN3CCCC3=N)cc3c2CCN(Cc2cc(OC)ccn2)C3=O)cn1 [Example 111, 5-(1-Ethyl-1H-pyrazol-4-yl)-7-((2-iminopyrrolidin-1-yl)methyl)-2-((4-methoxypyridin-2-yl)methyl)-3,4-dihydroisoquinolin-1(2H)-one] | > 938 nM | 
Cc1ccnc(CN2CCc3c(cc(CN4CCCC4=N)cc3-c3cn(C)nc3C(F)(F)F)C2=O)c1 [Example 112, 7-((2-Iminopyrrolidin-1-yl)methyl)-5-(1-methyl-3-(trifluoromethyl)-1H-pyrazol-4-yl)-2-((4-methylpyridin-2-yl)methyl)-3,4-dihydroisoquinolin-1(2H)-one] | 160 nM | 
COc1cc(CN2CCc3c(cc(CN4CCCC4=N)cc3-c3ccc(F)cc3C)C2=O)cc(OC)c1 [Example 113, 2-(3,5-Dimethoxybenzyl)-5-(4-fluoro-2-methylphenyl)-7-((2-iminopyrrolidin-1-yl)methyl)-3,4-dihydroisoquinolin-1(2H)-one] | 462 nM | 
COc1ccnc(CN2CCc3c(cc(CN4CCCC4=N)cc3-c3ccc(F)cc3C)C2=O)c1 [Example 114, 5-(4-Fluoro-2-methylphenyl)-7-((2-iminopyrrolidin-1-yl)methyl)-2-((4-methoxypyridin-2-yl)methyl)-3,4-dihydroisoquinolin-1(2H)-one] | 129 nM | 
CCn1cc(-c2cc(CN3Cc4ccccc4C3=N)cc3c2CCN(Cc2cc(OC)ccn2)C3=O)c(C(F)(F)F)n1 [Example 115, 5-(1-Ethyl-3-(trifluoromethyl)-1H-pyrazol-4-yl)-7-((1-iminoisoindolin-2-yl)methyl)-2-((4-methoxypyridin-2-yl)methyl)-3,4-dihydroisoquinolin-1(2H)-one] | > 938 nM | 
COc1cc(CN2CCc3c(cc(Cn4ccccc4=N)cc3-c3ccc(F)cc3C)C2=O)cc(OC)c1 [Example 116, 2-(3,5-Dimethoxybenzyl)-5-(4-fluoro-2-methylphenyl)-7-((2-iminopyridin-1(2H)-yl)methyl)-3,4-dihydroisoquinolin-1(2H)-one] | 268 nM | 
COc1ccnc(CN2CCc3c(cc(Cn4ccccc4=N)cc3-c3cn(C)nc3C)C2=O)c1 [Example 117, 5-(1,3-Dimethyl-1H-pyrazol-4-yl)-7-((2-iminopyridin-1(2H)-yl)methyl)-2-((4-methoxypyridin-2-yl)methyl)-3,4-dihydroisoquinolin-1(2H)-one] | > 938 nM | 
COc1cc(CN2CCc3c(cc(CNC(=N)C4CC4)cc3-c3ccc(F)cc3C)C2=O)cc(OC)c1 [Example 118, N-((2-(3,5-Dimethoxybenzyl)-5-(4-fluoro-2-methylphenyl)-1-oxo-1,2,3,4-tetrahydroisoquinolin-7-yl)methyl)cyclopropanecarboximidamide] | 159 nM | 
COc1ccnc(CN2CCc3c(cc(CNC(=N)C4CC4)cc3-c3cn(C)nc3C)C2=O)c1 [Example 119, N-((5-(1,3-Dimethyl-1H-pyrazol-4-yl)-2-((4-methoxypyridin-2-yl)methyl)-1-oxo-1,2,3,4-tetrahydroisoquinolin-7-yl)methyl)cyclopropanecarboximidamide] | > 938 nM | 
COc1ccnc(CN2CCc3c(cc(CNC(=N)C(F)(F)F)cc3-c3cn(C)nc3C(F)(F)F)C2=O)c1 [Example 120, 2,2,2-Trifluoro-N-((2-((4-methoxypyridin-2-yl)methyl)-5-(1-methyl-3-(trifluoromethyl)-1H-pyrazol-4-yl)-1-oxo-1,2,3,4-tetrahydroisoquinolin-7-yl)methyl)acetimidamide] | > 938 nM | 
COc1cc(CN2CCc3c(cc(Cn4cnn(C)c4=N)cc3-c3ccc(F)cc3C)C2=O)cc(OC)c1 [Example 121, 2-(3,5-Dimethoxybenzyl)-5-(4-fluoro-2-methylphenyl)-7-((5-imino-1-methyl-1,5-dihydro-4H-1,2,4-triazol-4-yl)methyl)-3,4-dihydroisoquinolin-1(2H)-one] | 134 nM | 
COc1cc(CN2CCc3c(cc(Cn4cnn(C)c4=N)cc3-c3cn(C)nc3C(F)(F)F)C2=O)cc(OC)c1 [Example 122, 2-(3,5-Dimethoxybenzyl)-7-((5-imino-1-methyl-1,5-dihydro-4H-1,2,4-triazol-4-yl)methyl)-5-(1-methyl-3-(trifluoromethyl)-1H-pyrazol-4-yl)-3,4-dihydroisoquinolin-1(2H)-one] | < 50 nM | 
CCn1cc(-c2cc(Cn3cnn(C)c3=N)cc3c2CCN(Cc2cc(OC)ccn2)C3=O)c(C(F)(F)F)n1 [Example 123, 5-(1-Ethyl-3-(trifluoromethyl)-1H-pyrazol-4-yl)-7-((5-imino-1-methyl-1,5-dihydro-4H-1,2,4-triazol-4-yl)methyl)-2-((4-methoxypyridin-2-yl)methyl)-3,4-dihydroisoquinolin-1(2H)-one] | < 50 nM | 
COc1cc(CN2CCc3c(cc(Cn4cnn(C)c4=N)cc3-c3ncc(F)cc3C)C2=O)cc(OC)c1 [Example 124, 2-(3,5-Dimethoxybenzyl)-5-(5-fluoro-3-methylpyridin-2-yl)-7-((5-imino-1-methyl-1,5-dihydro-4H-1,2,4-triazol-4-yl)methyl)-3,4-dihydroisoquinolin-1(2H)-one] | 935 nM | 
COc1ccnc(CN2CCc3c(cc(Cn4nc5ccccn5c4=N)cc3-c3cn(C)nc3C(F)(F)F)C2=O)c1 [Example 125, 7-((3-Imino-[1,2,4]triazolo[4,3-a]pyridin-2(3H)-yl)methyl)-2-((4-methoxypyridin-2-yl)methyl)-5-(1-methyl-3-(trifluoromethyl)-1H-pyrazol-4-yl)-3,4-dihydroisoquinolin-1(2H)-one] | > 938 nM | 
Cc1ccnc([C@H](C2CC2)N2CCc3c(cc(Cn4cnn(C)c4=N)cc3-c3ccc(F)cc3C)C2=O)c1 [Example 126, (S)-2-(Cyclopropyl(4-methylpyridin-2-yl)methyl)-5-(4-fluoro-2-methylphenyl)-7-((5-imino-1-methyl-1,5-dihydro-4H-1,2,4-triazol-4-yl)methyl)-3,4-dihydroisoquinolin-1(2H)-one] | < 50 nM | 
COc1cc(CN2CCc3c(cc(Cn4cnn(C)c4=N)cc3-c3ccc(C)nc3C)C2=O)cc(OC)c1 [Example 127, 2-(3,5-Dimethoxybenzyl)-5-(2,6-dimethylpyridin-3-yl)-7-((5-imino-1-methyl-1,5-dihydro-4H-1,2,4-triazol-4-yl)methyl)-3,4-dihydroisoquinolin-1(2H)-one] | 345 nM | 
CCn1cc(-c2cc(Cn3cnn(C)c3=N)cc3c2CCN(Cc2cc(C)nn2C)C3=O)c(C(F)(F)F)n1 [Example 128, 2-((1,3-Dimethyl-1H-pyrazol-5-yl)methyl)-7-((5-imino-1-methyl-1,5-dihydro-4H-1,2,4-triazol-4-yl)methyl)-5-(1-ethyl-3-(trifluoromethyl)-1H-pyrazol-4-yl)-3,4-dihydroisoquinolin-1(2H)-one] | > 938 nM | 
CCc1ccnc(CN2CCc3c(cc(Cn4cnn(C)c4=N)cc3-c3cn(CC)nc3C(F)(F)F)C2=O)c1 [Example 129, 5-(1-Ethyl-3-(trifluoromethyl)-1H-pyrazol-4-yl)-2-((4-ethylpyridin-2-yl)methyl)-7-((5-imino-1-methyl-1,5-dihydro-4H-1,2,4-triazol-4-yl)methyl)-3,4-dihydroisoquinolin-1(2H)-one] | < 50 nM | 
COc1ccnc(CN2CCc3c(cc(Cn4cnsc4=N)cc3-c3cn(C)nc3C(F)(F)F)C2=O)c1 [Example 130, 7-((5-Imino-1,2,4-thiadiazol-4(5H)-yl)methyl)-2-((4-methoxypyridin-2-yl)methyl)-5-(1-methyl-3-(trifluoromethyl)-1H-pyrazol-4-yl)-3,4-dihydroisoquinolin-1(2H)-one] | 845 nM | 
COc1ccnc(CN2CCc3c(cc(Cc4cncn4C)cc3-c3cn(C)nc3C(F)(F)F)C2=O)c1 [Example 131, 2-((4-Methoxypyridin-2-yl)methyl)-7-((1-methyl-1H-imidazol-5-yl)methyl)-5-(1-methyl-3-(trifluoromethyl)-1H-pyrazol-4-yl)-3,4-dihydroisoquinolin-1(2H)-one] |  | > 938 nM
COc1ccnc(CN2CCc3c(cc(Cc4ncc[nH]4)cc3-c3cn(C)nc3C(F)(F)F)C2=O)c1 [Example 132, 7-((1H-Imidazol-2-yl)methyl)-2-((4-methoxypyridin-2-yl)methyl)-5-(1-methyl-3-(trifluoromethyl)-1H-pyrazol-4-yl)-3,4-dihydroisoquinolin-1(2H)-one] |  | < 50 nM
COc1cc(CN2CCc3cc(F)c(CNC4=NCCN4)cc3C2=O)cc(OC)c1 [Example 133, 7-(((4,5-Dihydro-1H-imidazol-2-yl)amino)methyl)-2-(3,5-dimethoxybenzyl)-6-fluoro-3,4-dihydroisoquinolin-1(2H)-one] | 173 nM | 
COc1ccnc(CN2CCc3c(cc(CNC4=NCCO4)cc3-c3cn(C)nc3C)C2=O)c1 [Example 134, 7-(((4,5-Dihydrooxazol-2-yl)amino)methyl)-5-(1,3-dimethyl-1H-pyrazol-4-yl)-2-((4-methoxypyridin-2-yl)methyl)-3,4-dihydroisoquinolin-1(2H)-one] | > 938 nM | 
COc1ccnc(CN2CCc3c(cc(CNc4nnc5ccccn45)cc3-c3cn(C)nc3C(F)(F)F)C2=O)c1 [Example 135, 7-(([1,2,4]Triazolo[4,3-a]pyridin-3-ylamino)methyl)-2-((4-methoxypyridin-2-yl)methyl)-5-(1-methyl-3-(trifluoromethyl)-1H-pyrazol-4-yl)-3,4-dihydroisoquinolin-1(2H)-one] | > 938 nM | 
COc1ccnc(CN2Cc3c(cc(Cn4ccn(C)c4=N)cc3C3CC3)C2=O)c1 [Example 136, 4-Cyclopropyl-6-((2-imino-3-methyl-2,3-dihydro-1H-imidazol-1-yl)methyl)-2-((4-methoxypyridin-2-yl)methyl)isoindolin-1-one] | > 938 nM | 
CCn1cc(-c2cc(Cn3ccn(C)c3=N)cc3c2CN(Cc2cc(OC)ccn2)C3=O)c(C(F)(F)F)n1 [Example 137, 4-(1-Ethyl-3-(trifluoromethyl)-1H-pyrazol-4-yl)-6-((2-imino-3-methyl-2,3-dihydro-1H-imidazol-1-yl)methyl)-2-((4-methoxypyridin-2-yl)methyl)isoindolin-1-one] | 944 nM | 
